{"source": "PubChem BioAssay AID1963967", "about": "(Molecular Pharmacology Branch, DTP, NCI, 2024)", "tested_on": "855422-203-R-J1-PDC spheroids with HUVEC/MSC, viability", "assay": "Anticancer human tumor 855422-203-R-J1-PDC patient-derived bladder carcinoma cell line growth inhibition [PI3K]", "conditions": "for viability, T/C: stronger effect = lower value", "procedure,_shortened": "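Complex 3D spheroids (cancer cells + endothelial HUVEC + mesenchymal stem cells); drug pairs of targeted agent x inavolisib/alpelisib/duvelisib/copanlisib; half-log series from ~Cmax, max 10 microM if Cmax unknown; endpoint viability.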", "note": "Values joined by “and” are separate entries in the source; they are usually repeats but may differ in a detail not shown here. Equal entries are not always repeated.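 Note: agents incubated with spheroids for one week before read-out.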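 Throughout, for viability, T/C: 100% = DMSO vehicle-treated control wells.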", "data": [{"smiles": "CC1(C)CCC(CN2CCN(c3ccc(C(=O)NS(=O)(=O)c4ccc(NCC5CCOCC5)c([N+](=O)[O-])c4)c(Oc4cnc5[nH]ccc5c4)c3)CC2)=C(c2ccc(Cl)cc2)C1", "values": [{"measurement": "viability, T/C", "setting": "compound 0.0316 µM", "result": "107% [middle of 4 runs]"}, {"measurement": "viability, T/C", "setting": "compound 0.1 µM", "result": "92.7% [middle of 4 runs]"}, {"measurement": "viability, T/C", "setting": "compound 0.316 µM", "result": "118% [middle of 4 runs]"}, {"measurement": "viability, T/C", "setting": "compound 1 µM", "result": "102% and 95.7% and 103% (2×)"}, {"measurement": "viability, T/C", "setting": "compound 10 µM", "result": "2.29% [middle of 4 runs]"}, {"measurement": "IC50", "setting": "curve of compound", "result": "4.81 µM [middle of 4 runs]"}]}, {"smiles": "CC(C)NCC(C(=O)N1CCN(c2ncnc3c2C(C)CC3O)CC1)c1ccc(Cl)cc1", "note": "(stereo not drawn) + CC(Nc1ncnc2nc[nH]c12)c1cc2cccc(Cl)c2c(=O)n1-c1ccccc1", "values": [{"measurement": "IC50", "setting": "curve of first compound, second compound 0.0316 µM", "result": 1160, "unit": "nM"}, {"measurement": "IC50", "setting": "curve of first compound, second compound 0.1 µM", "result": 1120, "unit": "nM"}, {"measurement": "IC50", "setting": "curve of first compound, second compound 0.316 µM", "result": 1130, "unit": "nM"}, {"measurement": "IC50", "setting": "curve of first compound, second compound 1 µM", "result": 1130, "unit": "nM"}, {"measurement": "IC50", "setting": "curve of first compound, second compound 3.16 µM", "result": 1280, "unit": "nM"}, {"measurement": "IC50", "setting": "curve of first compound, second compound 10 µM", "result": 937, "unit": "nM"}, {"measurement": "viability, T/C", "setting": "second compound 0.0316 µM, first compound 0.0316 µM", "result": 114, "unit": "%"}, {"measurement": "viability, T/C", "setting": "second compound 0.0316 µM, first compound 0.1 µM", "result": 83.2, "unit": "%"}, {"measurement": "viability, T/C", "setting": "second compound 0.0316 µM, first compound 0.316 µM", "result": 83.9, "unit": "%"}, {"measurement": "viability, T/C", "setting": "second compound 0.0316 µM, first compound 1 µM", "result": 46.1, "unit": "%"}, {"measurement": "viability, T/C", "setting": "second compound 0.0316 µM, first compound 3.16 µM", "result": 34.5, "unit": "%"}, {"measurement": "viability, T/C", "setting": "second compound 0.0316 µM, first compound 10 µM", "result": 16.8, "unit": "%"}, {"measurement": "viability, T/C", "setting": "second compound 0.1 µM, first compound 0.0316 µM", "result": 103, "unit": "%"}, {"measurement": "viability, T/C", "setting": "second compound 0.1 µM, first compound 0.1 µM", "result": 88.2, "unit": "%"}, {"measurement": "viability, T/C", "setting": "second compound 0.1 µM, first compound 0.316 µM", "result": 70, "unit": "%"}, {"measurement": "viability, T/C", "setting": "second compound 0.1 µM, first compound 1 µM", "result": 51.4, "unit": "%"}, {"measurement": "viability, T/C", "setting": "second compound 0.1 µM, first compound 3.16 µM", "result": 34.9, "unit": "%"}, {"measurement": "viability, T/C", "setting": "second compound 0.1 µM, first compound 10 µM", "result": 19, "unit": "%"}, {"measurement": "viability, T/C", "setting": "second compound 0.316 µM, first compound 0.0316 µM", "result": 101, "unit": "%"}, {"measurement": "viability, T/C", "setting": "second compound 0.316 µM, first compound 0.1 µM", "result": 90.4, "unit": "%"}, {"measurement": "viability, T/C", "setting": "second compound 0.316 µM, first compound 0.316 µM", "result": 75.5, "unit": "%"}, {"measurement": "viability, T/C", "setting": "second compound 0.316 µM, first compound 1 µM", "result": 51.7, "unit": "%"}, {"measurement": "viability, T/C", "setting": "second compound 0.316 µM, first compound 3.16 µM", "result": 31.9, "unit": "%"}, {"measurement": "viability, T/C", "setting": "second compound 0.316 µM, first compound 10 µM", "result": 18.8, "unit": "%"}, {"measurement": "viability, T/C", "setting": "second compound 1 µM, first compound 0.0316 µM", "result": 88.6, "unit": "%"}, {"measurement": "viability, T/C", "setting": "second compound 1 µM, first compound 0.1 µM", "result": 93, "unit": "%"}, {"measurement": "viability, T/C", "setting": "second compound 1 µM, first compound 0.316 µM", "result": 81.3, "unit": "%"}, {"measurement": "viability, T/C", "setting": "second compound 1 µM, first compound 1 µM", "result": 50.1, "unit": "%"}, {"measurement": "viability, T/C", "setting": "second compound 1 µM, first compound 3.16 µM", "result": 32.8, "unit": "%"}, {"measurement": "viability, T/C", "setting": "second compound 1 µM, first compound 10 µM", "result": 19.5, "unit": "%"}, {"measurement": "viability, T/C", "setting": "second compound 3.16 µM, first compound 0.0316 µM", "result": 88.4, "unit": "%"}, {"measurement": "viability, T/C", "setting": "second compound 3.16 µM, first compound 0.1 µM", "result": 81.8, "unit": "%"}, {"measurement": "viability, T/C", "setting": "second compound 3.16 µM, first compound 0.316 µM", "result": 73.1, "unit": "%"}, {"measurement": "viability, T/C", "setting": "second compound 3.16 µM, first compound 1 µM", "result": 47.6, "unit": "%"}, {"measurement": "viability, T/C", "setting": "second compound 3.16 µM, first compound 3.16 µM", "result": 40, "unit": "%"}, {"measurement": "viability, T/C", "setting": "second compound 3.16 µM, first compound 10 µM", "result": 16.3, "unit": "%"}, {"measurement": "viability, T/C", "setting": "second compound 10 µM, first compound 0.0316 µM", "result": 85.3, "unit": "%"}, {"measurement": "viability, T/C", "setting": "second compound 10 µM, first compound 0.1 µM", "result": 81.9, "unit": "%"}, {"measurement": "viability, T/C", "setting": "second compound 10 µM, first compound 0.316 µM", "result": 69.8, "unit": "%"}, {"measurement": "viability, T/C", "setting": "second compound 10 µM, first compound 1 µM", "result": 47.1, "unit": "%"}, {"measurement": "viability, T/C", "setting": "second compound 10 µM, first compound 3.16 µM", "result": 30.1, "unit": "%"}, {"measurement": "viability, T/C", "setting": "second compound 10 µM, first compound 10 µM", "result": 15.2, "unit": "%"}]}]}
